Data on five molecules can be found in patent publication US12698507B2, “Methods and compositions for conferring and/or enhancing herbicide tolerance using protoporphyrinogen IX oxidase of various cyanobacteria or variant thereof” (FarmHannong Co., Ltd., priority 2019, dated 2026).

The target in assay [1] is Thermosynechococcus elongatus PKUAC-SCTE542 protoporphyrinogen IX oxidase CyPPO19 (SEQ ID NO: 1) variant A167L (MBP fusion) (Thermosynechococcus sichuanensis, UniProt A0A7D6JSC1, A167L). The assay can be described thus: biochemical. To be noted: 50 μM protoporphyrinogen IX, pH 7.5, room temperature, 30 min, 10,000 means equivalent to or higher, read-out: IC50.
For assay [2], the target named is Thermosynechococcus elongatus PKUAC-SCTE542 protoporphyrinogen IX oxidase CyPPO19 (SEQ ID NO: 1) variant V165S (MBP fusion) (Thermosynechococcus sichuanensis, UniProt A0A7D6JSC1, V165S). The assay can be described thus: biochemical. To be noted: 50 μM protoporphyrinogen IX, pH 7.5, room temperature, 30 min, 10,000 means equivalent to or higher, read-out: IC50.
For assay [3], the target named is Thermosynechococcus elongatus PKUAC-SCTE542 protoporphyrinogen IX oxidase CyPPO19 (SEQ ID NO: 1) variant A167C (MBP fusion) (Thermosynechococcus sichuanensis, UniProt A0A7D6JSC1, A167C). In words: biochemical.
In assay [4] the target is Thermosynechococcus elongatus PKUAC-SCTE542 protoporphyrinogen IX oxidase CyPPO19 (SEQ ID NO: 1) variant A167I (MBP fusion) (Thermosynechococcus sichuanensis, UniProt A0A7D6JSC1, A167I). In words: biochemical. Conditions: 50 μM protoporphyrinogen IX, pH 7.5, room temperature, 30 min, 10,000 means equivalent to or higher, read-out: IC50.
Assay [5] has as its target Thermosynechococcus elongatus PKUAC-SCTE542 protoporphyrinogen IX oxidase CyPPO19 (SEQ ID NO: 1) variant V305M (MBP fusion) (Thermosynechococcus sichuanensis, UniProt A0A7D6JSC1, V305M). The assay can be described thus: PPO enzyme inhibition assay (IC50 for herbicides), CyPPO19 V305M fused to MBP. The class given is biochemical.
Assay [6] concerns the target T1, Thermosynechococcus elongatus PKUAC-SCTE542 protoporphyrinogen IX oxidase CyPPO19, wild type, SEQ ID NO: 1 (MBP fusion) (Thermosynechococcus sichuanensis, UniProt A0A7D6JSC1).
T1 sequence (A0A7D6JSC1 1-467): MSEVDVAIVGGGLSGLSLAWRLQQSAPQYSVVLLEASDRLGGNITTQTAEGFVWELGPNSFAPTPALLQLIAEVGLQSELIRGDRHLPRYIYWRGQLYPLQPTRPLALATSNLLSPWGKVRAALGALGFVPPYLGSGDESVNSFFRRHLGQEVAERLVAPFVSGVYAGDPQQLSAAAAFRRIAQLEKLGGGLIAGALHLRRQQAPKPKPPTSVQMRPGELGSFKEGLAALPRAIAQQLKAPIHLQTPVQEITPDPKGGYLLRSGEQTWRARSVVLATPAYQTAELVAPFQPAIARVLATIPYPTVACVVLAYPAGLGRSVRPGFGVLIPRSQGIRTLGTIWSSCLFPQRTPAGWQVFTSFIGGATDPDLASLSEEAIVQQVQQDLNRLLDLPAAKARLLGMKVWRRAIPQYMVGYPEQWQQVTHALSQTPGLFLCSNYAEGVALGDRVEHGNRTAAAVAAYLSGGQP
In words: PPO enzyme inhibition assay (IC50 for herbicides), CyPPO19 wild type fused to MBP. The class given is biochemical.

Assay [7] has as its target Thermosynechococcus elongatus PKUAC-SCTE542 protoporphyrinogen IX oxidase CyPPO19 (SEQ ID NO: 1) variant V305L (MBP fusion) (Thermosynechococcus sichuanensis, UniProt A0A7D6JSC1, V305L). The assay can be described thus: PPO enzyme inhibition assay (IC50 for herbicides), CyPPO19 V305L fused to MBP. The assay is classed as biochemical.
Assay [8] has as its target Thermosynechococcus elongatus PKUAC-SCTE542 protoporphyrinogen IX oxidase CyPPO19 (SEQ ID NO: 1) variant R89A (MBP fusion) (Thermosynechococcus sichuanensis, UniProt A0A7D6JSC1, R89A). The assay can be described thus: biochemical.
Assay [9] concerns the target Thermosynechococcus elongatus PKUAC-SCTE542 protoporphyrinogen IX oxidase CyPPO19 (SEQ ID NO: 1) variant V165C (MBP fusion) (Thermosynechococcus sichuanensis, UniProt A0A7D6JSC1, V165C). The assay can be described thus: PPO enzyme inhibition assay (IC50 for herbicides), CyPPO19 V165C fused to MBP. The assay is classed as biochemical.
The test system of assay [10] is transgenic A. thaliana (T1) transformed with CyPPO19, CyPPO18 or variant genes. The assay can be described thus: Herbicide tolerance of transgenic A. thaliana (T1 plants). The class given is in vivo, Arabidopsis thaliana. Conditions: 1 μM tiafenacil and 0.05% Silwet L-77. The source says: Transgenic plants were screened with glufosinate tolerance which was conferred by Bar gene expression in the binary vector. […] They were, then, transplanted into soil and grown to obtain T1 plants.

The subject of assay [11] is wild type A. thaliana (Col-0). The assay can be described thus: Herbicide injury of wild type A. thaliana (Col-0) after spraying. The assay is classed as in vivo, Arabidopsis thaliana. Conditions: 1 μM tiafenacil and 0.05% Silwet L-77, within 7 days.
The subject of another assay is A. thaliana. In words: PPO-inhibiting herbicide tolerance test of transgenic A. thaliana (herbicide spray, injury index). The assay is classed as in vivo, Arabidopsis thaliana. To be noted: transgenic A. thaliana (T2), tiafenacil or flumioxazin spray.
Assay [12] deals with PPO-deficient BT3 E. coli (ΔPPO). In words: PPO-inhibiting herbicide tolerance test of PPO variants in E. coli (growth on herbicide-containing LB agar). To be noted: CyPPO18 variants in BT3 (ΔPPO) E. coli; LB agar with 0 to 2,000 μM herbicide, 37° C., dark, 16-20 hours. The class given is cell-based. Summed up:
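PPO-deficient BT3 E. coli expressing each variant from pET303 were diluted to OD600=0.5, then 10-fold serially, and spotted on LB-ampicillin agar with 0 to 2,000 μM herbicide. After 16-20 h at 37° C. in the dark, growth relative to wild type was scored from '−' (equivalent) to '+' per 10-fold resistance, max '+++++'.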

Read-outs that look alike come from different tables or passages of the source.

Thermosynechococcus elongatus PKUAC-SCTE542 protoporphyrinogen IX oxidase CyPPO19 (SEQ ID NO: 1) variant V305M (MBP fusion), sequence (A0A7D6JSC1 entry or part of it V305M): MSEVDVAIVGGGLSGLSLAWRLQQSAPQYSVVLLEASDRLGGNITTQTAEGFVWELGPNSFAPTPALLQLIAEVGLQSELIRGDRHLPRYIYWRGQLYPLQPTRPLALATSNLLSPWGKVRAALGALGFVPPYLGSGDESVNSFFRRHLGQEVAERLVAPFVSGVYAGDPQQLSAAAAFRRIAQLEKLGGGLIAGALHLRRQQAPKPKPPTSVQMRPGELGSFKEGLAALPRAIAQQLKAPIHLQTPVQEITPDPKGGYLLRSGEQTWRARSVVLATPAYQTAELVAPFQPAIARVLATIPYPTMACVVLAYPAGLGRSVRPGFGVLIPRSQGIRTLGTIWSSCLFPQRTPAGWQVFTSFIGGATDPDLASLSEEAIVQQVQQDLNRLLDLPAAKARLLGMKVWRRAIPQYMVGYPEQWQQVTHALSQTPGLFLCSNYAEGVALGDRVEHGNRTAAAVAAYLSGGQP
Thermosynechococcus elongatus PKUAC-SCTE542 protoporphyrinogen IX oxidase CyPPO19 (SEQ ID NO: 1) variant V165S (MBP fusion), sequence (A0A7D6JSC1 entry or part of it V165S): as the sequence (A0A7D6JSC1 entry or part of it V305M) above, with V165S, M305V counted along it
Thermosynechococcus elongatus PKUAC-SCTE542 protoporphyrinogen IX oxidase CyPPO19 (SEQ ID NO: 1) variant V165C (MBP fusion), sequence (A0A7D6JSC1 entry or part of it V165C): as the sequence (A0A7D6JSC1 entry or part of it V305M) above, with V165C, M305V counted along it
Thermosynechococcus elongatus PKUAC-SCTE542 protoporphyrinogen IX oxidase CyPPO19 (SEQ ID NO: 1) variant V305L (MBP fusion), sequence (A0A7D6JSC1 entry or part of it V305L): as the sequence (A0A7D6JSC1 entry or part of it V305M) above, with M305L counted along it
Thermosynechococcus elongatus PKUAC-SCTE542 protoporphyrinogen IX oxidase CyPPO19 (SEQ ID NO: 1) variant A167L (MBP fusion), sequence (A0A7D6JSC1 entry or part of it A167L): as the sequence (A0A7D6JSC1 entry or part of it V305M) above, with A167L, M305V counted along it
Thermosynechococcus elongatus PKUAC-SCTE542 protoporphyrinogen IX oxidase CyPPO19 (SEQ ID NO: 1) variant A167I (MBP fusion), sequence (A0A7D6JSC1 entry or part of it A167I): as the sequence (A0A7D6JSC1 entry or part of it V305M) above, with A167I, M305V counted along it
Thermosynechococcus elongatus PKUAC-SCTE542 protoporphyrinogen IX oxidase CyPPO19 (SEQ ID NO: 1) variant A167C (MBP fusion), sequence (A0A7D6JSC1 entry or part of it A167C): as the sequence (A0A7D6JSC1 entry or part of it V305M) above, with A167C, M305V counted along it
Thermosynechococcus elongatus PKUAC-SCTE542 protoporphyrinogen IX oxidase CyPPO19 (SEQ ID NO: 1) variant R89A (MBP fusion), sequence (A0A7D6JSC1 entry or part of it R89A): as the sequence (A0A7D6JSC1 entry or part of it V305M) above, with R89A, M305V counted along it

As a reminder, the IC50 is the concentration needed to halve the response being measured. As to `CS(=O)(=O)NC(=O)c1cc(Oc2ccc(C(F)(F)F)cc2Cl)ccc1[N+](=O)[O-]` [Fomesafen], the IC50 in assay [1] stood at 1760 nM; in assay [2], 348 nM; in assay [3], 843 nM; in assay [4] it was 899 nM; in [5], 257 nM; in [6], 242 nM. Moreover, the IC50 in [7] came to 466 nM; in assay [8], 2360 nM; in [9], 330 nM.

With `COC(=O)CCNC(=O)C(C)Sc1cc(-n2c(=O)cc(C(F)(F)F)n(C)c2=O)c(F)cc1Cl` (centres unmarked) [Tiafenacil], the IC50 in [1] amounted to 597 nM; in [2], 269 nM; in assay [3] it was 342 nM; in assay [4], 248 nM; in [5], 392 nM; in assay [6] (CyPPO19 WT, 50 μM protoporphyrinogen IX, pH 7.5, room temperature, 30 min, read-out: IC50) it was 67 nM. In addition, the values for the IC50 in assay [7], in assay [8] and in assay [9] were 1140 nM, 113 nM and 186 nM, respectively. Also, the figures for the “survival after herbicide treatment” value in [10] and in assay [11] were “survived” and “completely died within 7 days”, respectively.

B1: CyPPO18 WT: PPO protein derived from Thermosynechococcus vulcanus NIES-2134 strain, SEQ ID NO: 3 (protein)
chain: MIEVDVAIVGGGLSGLSVAWRLQRSAPHYSGVLLEASDRLGGNITTQAAEGFVWELGPNSFAPTPALLQLIAEVGLHSELIRGDRHLPRYIYWRGELYPLEPTRPLALATSNLLSPWGKVRAALGALGFVPPYLGSGDESVDSFFRRHLGQEVAERLVAPFVSGVYAGDPQQLSAAAAFRRIAQLEKLGGSLIAGALRLRRQQPPQPKPPAQVQMRPGELGSFREGLAALPRAIAQQLKAPLHLQTPVEAITPEPKGGYLLRSGEQTWHARSVVLATPAYQSAELVAPFQPAIARALATIPYPTVACVVLAYPAGLGRSVRPGFGVLVPRGQGIRTLGTIWSSCLFPQRTPAGWQVFTSFIGGATDPDLASLREEAIVEQVQQDLTRLLDLPAAKARLLGMKVWRRAIPQYIVGYPQQWQQLTHALTQTPGLFLCSNYAEGVALGDRVEHGNRTAAAVAAYLAGGQS
modifications: Synthetic_PPO of Thermosynechococcus vulcanus NIES-2134 (BAY51976)
Take B1: the “herbicide tolerance compared to non-transgenic plants” value in the assay with A. thaliana is given as “increased herbicide tolerance”.

B2: CyPPO18 R89A + V165C + A167L + V305M + F360I: variant of CyPPO18 PPO protein (SEQ ID NO: 3) (protein)
chain: MIEVDVAIVGGGLSGLSVAWRLQRSAPHYSGVLLEASDRLGGNITTQAAEGFVWELGPNSFAPTPALLQLIAEVGLHSELIRGDRHLPAYIYWRGELYPLEPTRPLALATSNLLSPWGKVRAALGALGFVPPYLGSGDESVDSFFRRHLGQEVAERLVAPFVSGCYLGDPQQLSAAAAFRRIAQLEKLGGSLIAGALRLRRQQPPQPKPPAQVQMRPGELGSFREGLAALPRAIAQQLKAPLHLQTPVEAITPEPKGGYLLRSGEQTWHARSVVLATPAYQSAELVAPFQPAIARALATIPYPTMACVVLAYPAGLGRSVRPGFGVLVPRGQGIRTLGTIWSSCLFPQRTPAGWQVFTSIIGGATDPDLASLREEAIVEQVQQDLTRLLDLPAAKARLLGMKVWRRAIPQYIVGYPQQWQQLTHALTQTPGLFLCSNYAEGVALGDRVEHGNRTAAAVAAYLAGGQS
modifications: Synthetic_PPO of Thermosynechococcus vulcanus NIES-2134 (BAY51976)
Turning to B2, in assay [12], the “tolerance level relative to wild type, Carfentrazone” value is reported as “++ (‘+’ per each 10-fold resistance)”; the “tolerance level relative to wild type, Flumioxazin” value is given as “+++++ (until ‘+++++’ as maximal resistance)”; the “tolerance level relative to wild type, Fomesafen” value is given as “+++++ (until ‘+++++’ as maximal resistance)”; the “tolerance level relative to wild type, Oxyfluorfen” value is given as “++ (‘+’ per each 10-fold resistance)”. Also, in [12], the “tolerance level relative to wild type, Saflufenacil” value is on record as “+++++ (until ‘+++++’ as maximal resistance)”; the “tolerance level relative to wild type, Sulfentrazone” value was “+++++ (until ‘+++++’ as maximal resistance)”; the “tolerance level relative to wild type, Tiafenacil” value is “+++++ (until ‘+++++’ as maximal resistance)”.

B3: CyPPO19 WT: PPO protein derived from Thermosynechococcus elongatus PKUAC-SCTE542 strain, SEQ ID NO: 1 (protein)
chain: MSEVDVAIVGGGLSGLSLAWRLQQSAPQYSVVLLEASDRLGGNITTQTAEGFVWELGPNSFAPTPALLQLIAEVGLQSELIRGDRHLPRYIYWRGQLYPLQPTRPLALATSNLLSPWGKVRAALGALGFVPPYLGSGDESVNSFFRRHLGQEVAERLVAPFVSGVYAGDPQQLSAAAAFRRIAQLEKLGGGLIAGALHLRRQQAPKPKPPTSVQMRPGELGSFKEGLAALPRAIAQQLKAPIHLQTPVQEITPDPKGGYLLRSGEQTWRARSVVLATPAYQTAELVAPFQPAIARVLATIPYPTVACVVLAYPAGLGRSVRPGFGVLIPRSQGIRTLGTIWSSCLFPQRTPAGWQVFTSFIGGATDPDLASLSEEAIVQQVQQDLNRLLDLPAAKARLLGMKVWRRAIPQYMVGYPEQWQQVTHALSQTPGLFLCSNYAEGVALGDRVEHGNRTAAAVAAYLSGGQP
modifications: Synthetic_PPO of Thermosynechococcus elongatus PKUAC-SCTE542 (comprising GenBank No. CP032152.1)
Turning to B3, the “herbicide tolerance compared to non-transgenic plants” value with A. thaliana is “increased herbicide tolerance”.
